Values of other authors as cited in patent US7662581B1, “Eg5 co-crystals” (Novartis Vaccines and Diagnostics, Inc., priority 2003, dated 2010).

Assays:
[1] = test system: HsEg5; conditions: protein level
[2] = test system: DAN-G pancreatic carcinoma cells

For `CC1=C(/C=C/C(C)=C/C=C/C(C)=C/C(=O)O)C(C)(C)CCC1` [ATRA, all trans-retinoic acid], the HsEg5 expression [1] is listed as “reduces HsEg5 expression on protein level” and the growth inhibition [2] is listed as “significant growth inhibition”.
